Converted amounts (≈) assume the structure as drawn.
Tests used:
ATCC43300 (MRSA) = experiment: In vitro antibacterial activity (MIC) against MRSA; assay type: cell-based, Methicillin-resistant Staphylococcus aureus; settings: MRSA strain ATCC43300; method of Pharmacopoeia of the People's Republic of China (2015 edition)
Protocol: (§1) An antibacterial activity of the compounds in Table 1 is determined in vitro, and a minimum inhibitory concentration (MIC) is read. The determination method refers to the method of the Pharmacopoeia of the People's Republic of China (2015 edition). The MRSA detection strain is purchased from ATCC, and the VRE detection strain is from the clinically isolated drug-resistant strain 07-W3-45 from Shanghai Huashan Hospital. Known antibiotic oritavancin (phosphate) is used for a reference drug.

[1] = tested on: Clinical isolates 07-W3-45 (VRE); experiment: In vitro antibacterial activity (MIC) against VRE; assay type: cell-based, Vancomycin-resistant Enterococcus; settings: clinically isolated drug-resistant strain 07-W3-45 from Shanghai Huashan Hospital
Protocol: as §1

wild AB zebrafish = experiment: Zebrafish toxicity test; assay type: in vivo; settings: intravenous injection, 72 hours of treatment, samples in phosphate form
Protocol: A zebrafish toxicity test of the compounds in Table 1 is also tested. Randomly select wild AB zebrafish in a six-well plate, and inject each test sample at a dose of 50, 100, 150, 200, and 250 ng/tail intravenously. At the same time, a normal control group and a solvent control group (aqueous phosphoric acid) are set; During this experiment, the death of zebrafish is observed and recorded every day and the dead fish are removed. After 72 hours of treatment, the death of zebrafish is counted. Calculate the LD50 of each test product to zebrafish.
All samples are tested for zebrafish toxicity in phosphate form.

Row | Compound | MIC ATCC43300 (MRSA) (ATCC43300 (MRSA)) [µg/mL] | MIC Clinical isolates 07-W3-45 (VRE) [1] [µg/mL] | Zebrafish LD50 (wild AB zebrafish) [ng/tail]
1 | CNC(CC(C)C)C(=O)NC1C(=O)NC(CC(N)=O)C(=O)NC2C(=O)NC3C(=O)NC(C(=O)NC(C(=O)O)c4cc(O)cc(O)c4-c4cc3ccc4O)C(OC3CC(C)(N)C(O)C(C)O3)c3ccc(c(Cl)c3)Oc3cc2cc(c3OC2OC(CO)C(O)C(O)C2OC2CC(C)(NCc3ccc(SCc4ccccc4)cc3)C(O)C(C)O2)Oc2ccc(cc2Cl)C1O (stereo not drawn) [Compound 14] | 0.032 (≈ 0.0177 µM) | 8 (≈ 4.43 µM) | 82
2 | CNC(CC(C)C)C(=O)NC1C(=O)NC(CC(N)=O)C(=O)NC2C(=O)NC3C(=O)NC(C(=O)NC(C(=O)O)c4cc(O)cc(O)c4-c4cc3ccc4O)C(OC3CC(C)(N)C(O)C(C)O3)c3ccc(c(Cl)c3)Oc3cc2cc(c3OC2OC(CO)C(O)C(O)C2OC2CC(C)(NCc3ccc(OCCc4ccccc4)cc3)C(O)C(C)O2)Oc2ccc(cc2Cl)C1O (stereo not drawn) [Compound 2] | 0.5 (≈ 0.277 µM) | 2 (≈ 1.11 µM) | 163
3 | CNC(CC(C)C)C(=O)NC1C(=O)NC(CC(N)=O)C(=O)NC2C(=O)NC3C(=O)NC(C(=O)NC(C(=O)O)c4cc(O)cc(O)c4-c4cc3ccc4O)C(OC3CC(C)(N)C(O)C(C)O3)c3ccc(c(Cl)c3)Oc3cc2cc(c3OC2OC(CO)C(O)C(O)C2OC2CC(C)(NCc3ccc(NCCc4ccccc4)cc3)C(O)C(C)O2)Oc2ccc(cc2Cl)C1O (stereo not drawn) [Compound 20] | 0.5 (≈ 0.278 µM) | 2 (≈ 1.11 µM) | 189
4 | CNC(CC(C)C)C(=O)NC1C(=O)NC(CC(N)=O)C(=O)NC2C(=O)NC3C(=O)NC(C(=O)NC(C(=O)O)c4cc(O)cc(O)c4-c4cc3ccc4O)C(OC3CC(C)(N)C(O)C(C)O3)c3ccc(c(Cl)c3)Oc3cc2cc(c3OC2OC(CO)C(O)C(O)C2OC2CC(C)(NCc3ccc(OCCc4ccc(C)cc4)cc3)C(O)C(C)O2)Oc2ccc(cc2Cl)C1O (stereo not drawn) [Compound 6] | 0.25 (≈ 0.138 µM) | 8 (≈ 4.4 µM) | 121
5 | CNC(CC(C)C)C(=O)NC1C(=O)NC(CC(N)=O)C(=O)NC2C(=O)NC3C(=O)NC(C(=O)NC(C(=O)O)c4cc(O)cc(O)c4-c4cc3ccc4O)C(OC3CC(C)(N)C(O)C(C)O3)c3ccc(c(Cl)c3)Oc3cc2cc(c3OC2OC(CO)C(O)C(O)C2OC2CC(C)(NCc3ccc(SCc4ccc(Cl)cc4)cc3)C(O)C(C)O2)Oc2ccc(cc2Cl)C1O (stereo not drawn) [Compound 15] | 0.032 (≈ 0.0174 µM) | 1 (≈ 0.544 µM) | 76
6 | CNC(CC(C)C)C(=O)NC1C(=O)NC(CC(N)=O)C(=O)NC2C(=O)NC3C(=O)NC(C(=O)NC(C(=O)O)c4cc(O)cc(O)c4-c4cc3ccc4O)C(OC3CC(C)(N)C(O)C(C)O3)c3ccc(c(Cl)c3)Oc3cc2cc(c3OC2OC(CO)C(O)C(O)C2OC2CC(C)(NCc3ccc(OCc4ccc(C)cc4)cc3)C(O)C(C)O2)Oc2ccc(cc2Cl)C1O (stereo not drawn) [Compound 4] | 0.5 (≈ 0.277 µM) | 2 (≈ 1.11 µM) | 101
7 | CNC(CC(C)C)C(=O)NC1C(=O)NC(CC(N)=O)C(=O)NC2C(=O)NC3C(=O)NC(C(=O)NC(C(=O)O)c4cc(O)cc(O)c4-c4cc3ccc4O)C(OC3CC(C)(N)C(O)C(C)O3)c3ccc(c(Cl)c3)Oc3cc2cc(c3OC2OC(CO)C(O)C(O)C2OC2CC(C)(NCc3ccc(OCCCc4ccccc4)cc3)C(O)C(C)O2)Oc2ccc(cc2Cl)C1O (stereo not drawn) [Compound 3] | 0.25 (≈ 0.138 µM) | 1 (≈ 0.55 µM) | 123
8 | CNC(CC(C)C)C(=O)NC1C(=O)NC(CC(N)=O)C(=O)NC2C(=O)NC3C(=O)NC(C(=O)NC(C(=O)O)c4cc(O)cc(O)c4-c4cc3ccc4O)C(OC3CC(C)(N)C(O)C(C)O3)c3ccc(c(Cl)c3)Oc3cc2cc(c3OC2OC(CO)C(O)C(O)C2OC2CC(C)(NCc3ccc(OCCCc4ccc(Cl)cc4)cc3)C(O)C(C)O2)Oc2ccc(cc2Cl)C1O (stereo not drawn) [Compound 13] | 0.5 (≈ 0.27 µM) | 2 (≈ 1.08 µM) | 164

From US11696937B2, “Glycopeptide compounds having activity of resisting drug-resistant bacteria, and preparation method and application thereof” (priority 2018, dated 2023)
